Laboratory results reported in patent publication US20080188478A1, “Compounds Useful In Therapy” (Pfizer Inc., priority 2005, published 2008).

Columns and labels:
human V1A receptor = human V1A receptor (Homo sapiens, UniProt P37288); assay: V1A filter binding assay ([3H]-AVP binding to CHO-hV1A membranes); conditions: screen 1.0, Ki by Cheng-Prusoff equation
Protocol: 1.0 V1A Filter Binding Assay
Receptor binding assays were performed on cellular membranes prepared from CHO cells stably expressing the human V1A receptor, (CHO-hV1A). The CHO-hV1A cell line was kindly provided under a licensing agreement by Marc Thibonnier, Dept. of Medicine, Case Western Reserve University School of Medicine, Cleveland, Ohio. CHO-hV1A cells were routinely maintained at 37° C. in humidified atmosphere with 5% CO2 in DMEM/Hams F12 nutrient mix supplemented with 10% fetal bovine serum, 2 mM L-glutamine, 15 mM HEPES and 400 μg/ml G418. For bulk production of cell pellets, adherent CHO-hV1A cells were grown to confluency of 90-100% in 850 cm^2 roller bottles containing a medium of DMEM/Hams F12 Nutrient Mix supplemented with 10% fetal bovine serum, 2 mM L-glutamine and 15 mM HEPES. Confluent CHO-hV1A cells were washed with phosphate-buffered saline (PBS), harvested into ice cold PBS and centrifuged at 1,000 rpm. Cell pellets were stored at −80° C. until use. When required, the cell pellets were thawed on ice and homogenised in membrane preparation buffer consisting of 50 mM Tris-HCl, pH 7.4, 5 mM MgCl2 and supplemented with a protease inhibitor cocktail, (Roche). The cell homogenate was centrifuged at 1000 rpm, 10 min, 4° C. and the supernatant was removed and stored on ice. The remaining pellet was homogenised and centrifuged as before. The supernatants were pooled and centrifuged at 25,000×g for 30 min at 4° C. The pellet was resuspended in freezing buffer consisting of 50 mM Tris-HCl, pH 7.4, 5 mM MgCl2 and 20% glycerol and stored in small aliquots at −80° C. until use. Protein concentration was determined using Bradford reagent and BSA as a standard.
Protein linearity, followed by saturation binding studies were performed on each new batch of membrane. A membrane concentration was chosen that gave specific binding on the linear portion of the curve. Saturation binding studies were then performed using various concentrations of [^3H]-arginine vasopressin, [^3H]-AVP (0.05 nM-100 nM) and the Kd and Bmax were determined. […] The plates were sealed and counted on a TopCount Microplate Scintillation Counter (Packard Instruments). Non-specific binding (NSB) was determined using 1 μM unlabelled d(CH2)5Tyr(Me)AVP ([β-mercapto-β,β-cyclopentamethylenepropionyl, 0-Me-Tyr^2, Arg^8]-vasopressin) (βMCPVP), (Sigma). The radioligand binding data was analysed using a four parameter logistic equation with the min forced to 0%. […] Specific binding was calculated by subtracting the mean NSB cpm from the mean Total cpm. For test compounds the amount of ligand bound to the receptor was expressed as % bound=(sample cpm−mean NSB cpm)/specific binding cpm×100. […]

human V1A receptor, sequence (P37288 whole entry): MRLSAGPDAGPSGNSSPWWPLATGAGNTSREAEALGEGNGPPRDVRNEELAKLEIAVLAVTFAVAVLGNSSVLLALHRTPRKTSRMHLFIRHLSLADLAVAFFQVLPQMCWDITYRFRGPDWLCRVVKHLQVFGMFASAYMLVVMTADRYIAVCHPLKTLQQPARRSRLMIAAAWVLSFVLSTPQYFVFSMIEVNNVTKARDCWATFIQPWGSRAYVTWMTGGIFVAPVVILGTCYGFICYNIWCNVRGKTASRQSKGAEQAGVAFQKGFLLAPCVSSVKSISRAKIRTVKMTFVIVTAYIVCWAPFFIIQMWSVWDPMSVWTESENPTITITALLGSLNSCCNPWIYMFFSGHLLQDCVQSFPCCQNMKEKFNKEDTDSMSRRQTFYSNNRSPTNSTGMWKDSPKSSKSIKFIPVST

Structure (SMILES) | Ki (human V1A receptor) [nM] | melting point [°C]
O=c1oc2cccnc2n1C1CCN(c2nnc(Cn3nccn3)n2-c2ccc(Cl)cc2)CC1 [Example 7, 3-{1-[4-(4-chlorophenyl)-5-(2H-1,2,3-triazol-2-ylmethyl)-4H-1,2,4-triazol-3-yl]piperidin-4-yl}[1,3]oxazolo[4,5-b]pyridin-2(3H)-one] | 1.1 | –
Cc1nnc(N2CCC(N3c4ccccc4N(C)S3(=O)=O)CC2)n1-c1ccc(Cl)cc1 [Example 18, 1-{1-[4-(4-Chlorophenyl)-5-methyl-4H-1,2,4-triazol-3-yl]piperidin-4-yl}-3-methyl-1,3-dihydro-2,1,3-benzothiadiazole 2,2-dioxide] | – | 210 to 212
Cc1nnc(N2CCN(c3nsc4ccccc34)CC2)n1-c1ccc(Cl)cc1 [Example 20, 3-{4-[4-(4-Chlorophenyl)-5-methyl-4H-1,2,4-triazol-3-yl]piperazin-1-yl}-1,2-benzisothiazole] | 0.49 | –
FC(F)(F)c1nnc(N2CCN(c3nsc4ccccc34)CC2)n1-c1ccc(Cl)cc1 [Example 22, 3-{4-[4-(4-Chlorophenyl)-5-(trifluoromethyl)-4H-1,2,4-triazol-3-yl]piperazin-1-yl}-1,2-benzisothiazole] | 0.79 | –
Cc1nnc(C2CCN(c3noc4cccnc34)CC2)n1-c1ccc(Cl)cc1 [Example 29, 3-{4-[4-(4-Chlorophenyl)-5-methyl-4H-1,2,4-triazol-3-yl]piperidin-1-yl}isoxazolo[4,5-b]pyridine] | 1.04 | –
